How the values were obtained:
S. pneumoniae = experiment: Murine pneumonia model (invasive pneumococcal pneumonia); assay type: in vivo; details: 3 mg/kg IV at 24 and 48 hours after S. pneumoniae LD90 inoculation; moxifloxacin at 6, 24, 48 hours; all vehicle animals succumbed by 80 hours
Method: The effects of Compound 1 and Compound 2[2-(3-fluoro-4-hydroxyphenyl)-7-vinyl-1,3-benzoxazol-5-ol, or ERB-041] initially dosed at 3 mg/kg IV were being assessed on 7-day survival, microbial clearance and attenuation the acute and chronic pro-inflammatory effects of invasive pneumococcal pneumonia in lung tissue and distant organs in the murine pneumonia model. [Mohler J et al. Intensive Care Med 2003; 29:808-816.] Compound 1 and Compound 2 were tested to determine their ability to modulate the pathophysiology of severe infection and mortality from local and systemic inflammation from severe bacterial pneumonia. The compounds were delivered IV at 24 and 48 hours after inoculation with S. pneumoniae at an LD90 dose. Moxifloxacin was given at 6, 24 and 48 hours. The animals became bacteremic and develop a lethal pulmonary and systemic infection between 48 and 72 hours after the primary inoculation. All of the vehicle treated animals succumbed by 80 hours (3 days and 8 hours), while at 7 days 20% of the Compound 1—treated animals were alive and 60% of the Compound 2—treated animals survived.

[1] = system: peripheral blood mononuclear cells (PBMC) gene transcripts and plasma chemokines; experiment: Plasma proteome and PBMC gene transcription in the IV live E. coli challenge model in baboon; assay type: in vivo
Method: The plasma proteome and gene transcription of peripheral blood mononuclear cells (PBMC) were investigated using the baboon model of sepsis to evaluate the effect of Compound 1 on progression of the disease. The study comprised three treatment groups—sham-treated, vehicle, and Compound 1—of three baboons each. Blood samples were drawn at multiple time points (0, 0.5, 1, 2, 3, 4, 6, 24, 48, and 168 hours) from each baboon. NuGen amplified RNA was prepared from peripheral blood mononuclear cells (PBMC) isolated from the 0, 1, 6, and 24 hour blood samples. RNA levels were then measured using Affymetrix rhesus monkey Genechips, which interrogated 52,865 transcripts. Of interest was whether expression levels of one or more of these transcripts differed among the three treatment groups over the course of the study.
Genechip data were processed using Affymetrix MAS 5 software to calculate detection p-values and signal (expression) values. Detection p-values were used to generate Affymetrix Absent, Marginal, or Present calls (p-value≧0.065: Absent; 0.05≦p-value<0.065: Marginal; p-value<0.05: Present). Signal values were normalized by the standard MAS 5 procedure.
This filter reduced the number of transcripts for further analysis to 43,181.
To adjust for differences among animals in baseline expression values, change from baseline expression was analyzed. Change from baseline expression values were calculated using log2-transformed signal values. For each transcript, the log2 signal value for an animal at the 0 hour (baseline) sampling time was subtracted from the log2 signal value for the same animal for each later sampling time to yield change from baseline values for 1, 6, and 24 hours for that animal.
Repeated-measures analysis of variance (ANOVA) was used to compare (log2-transformed) change from baseline expression values in the treatment groups across the sampling time points. The ANOVA model included terms for treatment group and sampling time, and a term for the interaction between treatment group and time. The model also included a compound symmetry covariance parameter to account for any within-animal correlation between measurements at different sampling times from the same animal. Separate ANOVAs were run for each transcript. Pairwise comparisons between treatment groups were computed for mean concentrations across all times as well as for each time point separated. These pairwise comparisons were based on two-sided t-tests, with the error term for the t-tests based on the overall error term from the ANOVA.
Due to the substantial number of statistical tests performed, false discovery rates (FDRs) were used to adjust the raw p-values from F-tests and t-tests for multiple comparisons. The FDRs were computed to control the family-wise error level by calculating FDRs across transcripts separately for each set of comparisons (e.g., each pairwise comparison at a particular sampling time).

[2] = system: lung tissue gene expression; experiment: Lung tissue gene expression in the mCLP model (Affymetrix array, Ingenuity Pathways Analysis); assay type: in vivo; details: mice subjected to CLP, intravenous treatment at CLP induction, lung tissue at 48 hours
Method: In order to further define the activity of Compound 1 in murine CLP, satellite groups of mice were treated intravenously at the time of CLP induction surgery with vehicle or Compound 1. An additional group of mice(surgical sham group) were subjected to the anesthesia and laparotomy, the cecum was manipulated but not ligated, and then the abdomen was closed. Because mCLP produces a progressive sepsis state, the animals become extremely ill and begin to succumb between 48-72 hours after mCLP. Thus, these animals were euthanized at 48 hours and lung tissue samples collected for gene expression analysis.
Messenger RNA was prepared by standard techniques, and the samples were processed on the Mouse430—2 Affymetrix commercial array, containing 45,037 non-control probe sets.
A heat map of differential gene expression was used to detect those gene transcripts with gene expression decreasing and those gene transcripts with gene expression increasing.
Using Ingenuity Pathways Analysis (IPA), 277 of the 522 probe sets were eligible for generating pathways. […] These pathways are identified in Table 4.

E. coli = experiment: Intravenous E. coli challenge model of sepsis in baboons; assay type: in vivo; details: 10 mg/kg intravenously
Method: The intravenous E. coli infusion model of sepsis in baboons has been used for many years in sepsis research [Taylor F B Crit Care Med 2001 ;29:S78-89], and it has acute lung injury as one of its pathophysiological features [Sabharwal A K et al. Am J Resp Crit Care 1995; 151:758-67].
Compound 1 was given at a range of doses […] intravenously at a dose of 10 mg/kg in baboons 5 minutes before and then at 2, 24, 48, 72 and 96 hours following E. coli challenge. Survival, inflammatory markers, lung histopathology, and microbiologic parameters were assessed.
In the baboon study the lungs were examined at euthanasia of the animals when moribund or at the end of the 7 day experiment. Animals were assigned to vehicle and Compound 1 E. coli challenge. The lung specimens were evaluated by an independent pathologist unaware of treatment group assignments.

[3] = system: CLP-induced polymicrobial sepsis; experiment: Murine cecal ligation and puncture (CLP) model of polymicrobial sepsis; assay type: in vivo, BALB/c mice; details: score 0 normal to 4 marked diffuse inflammation and damage; oral dosing from time of CLP; euthanized at 48 hours; 8 animals; p<0.001 vs vehicle 3.08±0.74
Method: Murine cecal ligation and puncture is an accepted model of sepsis and was performed according to a previously published protocol [Opal et al., “evaluation of the safety of recombinant P-selectin glycoprotein ligand-immunoglobulin G fusion protein in experimental models of localized and systemic infection,” Shock 2001;15:285-90]. […] Acute lung injury is a documented component of this peritonitis-induced sepsis, and the model has been used to study the effects of other pharmaceutical agents on acute lung injury in sepsis [Tsujimoto et al. Shock 2005;23:39-44; and Singleton et al. Am J Physiol Regul Integr Comp Physiol (Jan. 18, 2007)].
Mice were euthanized at 48 hours following CLP and treatment with vehicle or Compound 1, both treatments having begun at the time of CLP.
Compound 1 was given at a range of doses orally at time 0, 24 and 48 hours following CLP in male and female BALB/c mice Survival, inflammatory markers, lung histopathology, and microbiologic parameters were assessed.
Multiple lung specimens were taken at necropsy from 8 vehicle- and 8 Compound 1—treated animals and evaluated by an independent pathologist unaware of the treatment group assignments. Treatment with Compound 1 reduced lung lesions (such as lung edema and lung inflammation) comparing to that with vehicle (Compound 1: 1.0±0.76 vs. vehicle: 3.08±0.74, p<0.001). […]

[4] = baboon plasma after E coli challenge
[5] = by 24 hours after E coli infusion, compared to vehicle treated animals

In the case of `N#Cc1cc(-c2ccc(O)c(F)c2)cc2ccc(O)cc12` [Compound 1, 3-(3-fluoro-4-hydroxy-phenyl)-7-hydroxy-naphthalene-1-carbonitrile], the “animals alive (survival) at 7 days” value (S. pneumoniae) is reported as 20%, the “plasma MCP-1” value [1, 4] is reported as “significantly reduced” and the “plasma MIP-1 alpha” value [1, 4] is reported as “significantly reduced”. The “Hypoxia inducible factor-2 Alpha (HIF2-ALPHA) gene transcript in PBMC” value [1, 5] was “decreased”, the “Nuclear receptor subfamily 4, group A, member 3 (NR4A3) gene transcript in PBMC” value [1, 5] was “decreased” and the “early growth response 3 (EGR-3) gene transcript in PBMC” value [1, 5] was “decreased”. The “proinflammatory pathways (gene transcripts) in the lungs” value [2] was “significantly decreased”, the “clinical signs of pulmonary injury (percent change in respiratory rate from baseline)” value (E. coli) was “attenuated” and the “hyaline membrane formation (histopathology)” value (E. coli; lungs at euthanasia or day 7) was “absence of hyaline membrane formation”. For the same compound, the “intrapulmonary hemorrhage (histopathology)” value (E. coli; lungs at euthanasia or day 7) was “decreased intrapulmonary hemorrhage” and the “lung lesions (lung edema and lung inflammation) histopathology score” value [3] was 1.0±0.76.
For `C=Cc1cc(O)cc2nc(-c3ccc(O)c(F)c3)oc12` [Compound 2, 2-(3-fluoro-4-hydroxyphenyl)-7-vinyl-1,3-benzoxazol-5-ol], the “animals alive (survival) at 7 days” value (S. pneumoniae) was 60%.

Reference: patent US20080182872A1, “USE OF ER-BETA SELECTIVE LIGANDS FOR TREATING ACUTE LUNG INJURIES” (WYETH, priority 2007, published 2008)
